Laboratory results: the supplement of paper PMC10307832

Compound: CC(C)(C)c1nc(-c2cccc(NS(=O)(=O)c3c(F)cccc3F)c2F)c(-c2ccnc(N)n2)s1 [Dabrafenib] + COc1cc2c(Oc3ccc(NC(=O)C4(C(=O)Nc5ccc(F)cc5)CC4)cc3F)ccnc2cc1OCCCN1CCOCC1 [Foretinib] (partner 0.25 µM)
Assay: relative viability (nuclei count vs DMSO), 5 days (fraction); higher = more cells survive
Details: first compound 0.009487 µM
In short: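 Relative viability equals treated-well nuclei counts divided by vehicle-well nuclei counts. Counts came from 4× images of lung cancer cell lines grown in 1536-well plates for 5 days after pin-tool dosing on the day after seeding. Dosing used one drug alone or a fixed anchor-drug dose plus five library-drug doses (not always all listed) in √10 steps, and values are medians of duplicate plates.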

| Cell Line | relative viability |
| --- | --- |
| NCI-H441 | 1.11 |
| EMC-BAC-2 | 1.01 |
| NCI-H2170 | 0.539 |
| NCI-H1703 | 0.327 |
| UMC-11 | 1.12 |
| NCI-H650 | 0.959 |
| LCLC-103H | 0.791 |
| NCI-H596 | 0.928 |
| HCC-827 | 1.04 |
| COR-L 105 | 1.32 |
| NCI-H1299 | 1.09 |
| NCI-H2126 | 1.22 |
| A549 | 0.988 |
| NCI-H1650 | 1.3 |
| ChaGo-K-1 | 0.902 |
| Calu-6 | 0.964 |
| COR-L23 | 0.982 |
| SK-LU-1 | 0.848 |
| SW 1573 | 0.992 |
| NCI-H2342 | 1.18 |
| NCI-H1563 | 0.981 |
| NCI-H661 | 0.983 |
| NCI-H2009 | 1.18 |
| NCI-H520 | 0.78 |
| EBC-1 | 0.0889 |
| NCI-H2023 | 0.922 |
| NCI-H1623 | 0.869 |
| SK-MES-1 | 0.905 |

Same assay, conditions: first compound 0.03 µM

| Cell Line | relative viability |
| --- | --- |
| ABC-1 | 0.866 |
| CAL-12T | 1.11 |
| NCI-H1944 | 0.948 |
| NCI-H2085 | 0.981 |
| IA-LM | 1.08 |
| NCI-H2228 | 0.797 |
| NCI-H441 | 0.941 |
| EMC-BAC-2 | 0.766 |
| NCI-H2170 | 0.961 |
| NCI-H1703 | 0.34 |
| UMC-11 | 1.06 |
| NCI-H650 | 0.793 |
| LCLC-103H | 0.737 |
| NCI-H596 | 0.575 |
| HCC-827 | 0.876 |
| COR-L 105 | 1.18 |
| NCI-H1299 | 1.07 |

| Cell Line | relative viability |
| --- | --- |
| NCI-H2126 | 1.15 |
| A549 | 0.911 |
| NCI-H1650 | 0.895 |
| ChaGo-K-1 | 0.906 |
| Calu-6 | 0.84 |
| COR-L23 | 0.873 |
| SK-LU-1 | 0.633 |
| SW 1573 | 0.806 |
| NCI-H2342 | 0.954 |
| NCI-H1563 | 0.824 |
| NCI-H661 | 0.97 |
| NCI-H2009 | 1.24 |
| NCI-H520 | 0.455 |
| EBC-1 | 0.103 |
| NCI-H2023 | 0.796 |
| NCI-H1623 | 0.846 |
| SK-MES-1 | 1 |

Same assay, conditions: first compound 0.09487 µM

| Cell Line | relative viability |
| --- | --- |
| ABC-1 | 1.02 |
| CAL-12T | 1.11 |
| NCI-H1944 | 0.827 |
| NCI-H2085 | 0.899 |
| IA-LM | 0.977 |
| NCI-H2228 | 0.749 |
| NCI-H441 | 1.05 |
| EMC-BAC-2 | 0.924 |
| NCI-H2170 | 1.01 |
| NCI-H1703 | 0.334 |
| UMC-11 | 0.984 |
| NCI-H650 | 0.734 |
| LCLC-103H | 0.804 |
| NCI-H596 | 0.686 |
| COR-L 105 | 1.11 |
| NCI-H1299 | 1.03 |
| NCI-H2126 | 1 |

| Cell Line | relative viability |
| --- | --- |
| A549 | 0.988 |
| NCI-H1650 | 1.45 |
| ChaGo-K-1 | 0.883 |
| Calu-6 | 0.84 |
| COR-L23 | 0.882 |
| SK-LU-1 | 0.64 |
| SW 1573 | 1.01 |
| NCI-H2342 | 1.09 |
| NCI-H1563 | 1.04 |
| NCI-H661 | 1.01 |
| NCI-H2009 | 0.995 |
| NCI-H520 | 0.74 |
| EBC-1 | 0.0949 |
| NCI-H2023 | 0.877 |
| NCI-H1623 | 0.829 |
| SK-MES-1 | 0.796 |

Same assay, conditions: first compound 0.3 µM

| Cell Line | relative viability |
| --- | --- |
| ABC-1 | 1.26 |
| CAL-12T | 1.44 |
| NCI-H1944 | 0.85 |
| NCI-H2085 | 1.08 |
| IA-LM | 1.13 |
| NCI-H2228 | 0.97 |
| NCI-H441 | 0.843 |
| EMC-BAC-2 | 1.06 |
| NCI-H2170 | 1.11 |
| NCI-H1703 | 0.447 |
| UMC-11 | 1.13 |
| NCI-H650 | 0.585 |
| LCLC-103H | 0.849 |
| NCI-H596 | 0.861 |
| HCC-827 | 1.03 |
| COR-L 105 | 1.41 |
| NCI-H1299 | 1.08 |

| Cell Line | relative viability |
| --- | --- |
| NCI-H2126 | 1.43 |
| A549 | 0.975 |
| NCI-H1650 | 1.71 |
| ChaGo-K-1 | 0.95 |
| Calu-6 | 0.654 |
| COR-L23 | 0.935 |
| SK-LU-1 | 0.757 |
| SW 1573 | 1.05 |
| NCI-H2342 | 1.2 |
| NCI-H1563 | 1.01 |
| NCI-H661 | 1.01 |
| NCI-H2009 | 0.911 |
| NCI-H520 | 0.661 |
| EBC-1 | 0.108 |
| NCI-H2023 | 1.02 |
| NCI-H1623 | 1.12 |
| SK-MES-1 | 0.995 |
